Entries after “also recorded” stand apart in the source; their conditions may differ.
Tests used:
[1] = test system: high-fat diet fed obese mice; assay: Effects of FXR agonists on diet induced obese mice; type: in vivo, C57BL mice; details: 10, 30 and 100 mg/kg twice a day orally; for serum NEFA / serum cholesterol / serum glucose / serum glycerol / serum insulin / serum triglyceride: end of study; for body fat mass: four weeks of treatment, QMR
Description: Methods: Male 20 to 25 g C57BL mice (Charles River, Indianapolis, Ind.) were housed at 72° F. and 50% relative humidity with a 12 h light and dark cycle and fed with standard rodent chow (Purina 5001, Harlan Teklad, Indianapolis, Ind.) or a high-fat diet (TD93075, Harlan Teklad, Indianapolis, Ind.) for eight weeks. After three weeks, mice on high-fat diet were randomized to vehicle or treatment groups based on fasting glucose and body weight. Starting from the fifth week, mice were given either vehicle or the compound in Example 1 (10, 30 and 100 mg/kg) or the compound in Example 5 (10, 30, 100 mg/kg) twice a day orally. Mice on the standard rodent chow were also given vehicle as a control. Body composition was measured using the quantitative magnetic resonance (QMR) method before and at the end of compound treatment. […] Serum chemistry levels were measured using the Instrumentation Laboratory Ilab600™ clinical chemistry analyzer (Instrumentation Laboratory, Boston, Mass.).

[2] = test system: high-fat diet induced insulin resistant, glucose intolerant, and obese mouse model; details: mice on high-fat diet, cited from earlier work
db/db mice = details: oral 30 mg/kg, bid; cited from earlier work
[3] = test system: bile duct-ligated mouse model; details: cited from earlier work
[4] = test system: rodent models of hepatic fibrosis; details: multiple rodent models; cited from earlier work
[5] = test system: hepatic stellate cells (HSC); details: cultured HSCs; cited from earlier work
[6] = 100 mg/kg twice a day orally, 100 mg/kg

CC(C)c1onc(-c2c(Cl)cccc2Cl)c1COc1ccc(-c2ccc3cc(C(=O)O)ncc3c2)cc1 [Example 5, 7-[4-({[3-(2,6-Dichlorophenyl)-5-(1-methylethyl) -4-isoxazolyl]methyl}oxy)phenyl]-3-isoquinolinecarboxylic acid]
serum NEFA [1]: decreased
serum cholesterol [1]: decreased
serum glucose [1]: decreased
serum glycerol [1]: decreased
serum insulin [1]: decreased
serum triglyceride [1]: decreased
body fat mass [1]: decreased

CC(C)c1onc(-c2c(Cl)cccc2Cl)c1COc1ccc(/C=C/c2cccc(C(=O)O)c2)c(Cl)c1 [GW4064]
serum glucose [2, 6]: decreased
serum insulin [2, 6]: decreased
serum triglyceride [2, 6]: decreased
glucose tolerance ([2]; 100 mg/kg twice a day orally, GTT, 100 mg/kg): corrected glucose intolerance; also recorded: improve
high-fat diet induced body weight gain ([2]; 100 mg/kg twice a day orally): reduced
liver triglyceride content ([2]; 100 mg/kg twice a day orally): reduced
body fat mass [2]: decrease
body weight [2]: decrease
serum total cholesterol [2]: decrease
NEFA (db/db mice): decreased
total cholesterol (db/db mice): decreased
triglyceride (db/db mice): decreased
bacterial overgrowth [3]: decreased
mucosal barrier [3]: improved
translocation of bacteria to mesenteric lymph nodes [3]: decreased

CC[C@H]1[C@@H](O)[C@@H]2[C@H](CC[C@]3(C)[C@@H]([C@H](C)CCC(=O)O)CC[C@@H]23)[C@@]2(C)CC[C@@H](O)C[C@@H]12 [Example 6EtCDCA, 6-ethyl-chenodeoxycholic acid]
development of hepatic fibrosis [4]: prevent
resolution of hepatic fibrosis [4]: promote
expression of fibrotic marker α1(I)collagen [5]: decreased
expression of fibrotic marker α-smooth muscle actin [5]: decreased

CC(C)c1onc(-c2c(Cl)cccc2Cl)c1COc1ccc(-c2ccc3nc(C(=O)O)ccc3c2)cc1 [Example 1, 6-[4-({[3-(2,6-Dichlorophenyl)-5-(1-methylethyl)-4-isoxazolyl]methyl}oxy)phenyl]-2-quinolinecarboxylic Acid]
serum NEFA [1]: decreased
serum cholesterol [1]: decreased
serum glucose [1]: decreased
serum glycerol [1]: decreased
serum insulin [1]: decreased
serum triglyceride [1]: decreased
body fat mass [1]: decreased

— patent US7960552B2, “Farnesoid X receptor agonists” (GlaxoSmithKline LLC, priority 2006, dated 2011)
